Assay results published in patent publication US20060228387A1, “Dihydronepetalactams and N-substituted derivatives thereof” (priority 2004, published 2006).

system: Aedes aegypti mosquitoes; test: in vitro Gupta box landing assay (insect repellency); details: 20 min; 1% (w/v) in isopropyl alcohol, 25 μL on Baudruche membrane; female Aedes aegypti; landings over 20 min vs IPA control
Description: The products of Examples 1-15 were evaluated for insect repellency against Aedes aegypti mosqutioes in the in vitro Gupta box landing assay. In this method a chamber contained 5 wells, each covered by a Baudruche (animal intestine) membrane. Each well was filled with bovine blood containing sodium citrate (to prevent clotting) and ATP (72 mg ATP disodium salt per 26 ml of blood), and heated to 37° C. A volume of 25 μL of isopropyl alcohol (IPA) containing one test specimen or control was applied to each membrane. The concentrations of the dihydronepetalactam products were 1% (w/v) in IPA. The negative control was neat IPA and the positive control was a 1% (w/v) solution of DEET. After 5 min, approximately 250 4-day-old female Aedes aegypti mosquitoes were introduced into the chamber. The number of mosquitoes probing the membranes for each treatment was recorded at 2 min intervals over 20 min. The results obtained in this manner with respect to the compounds of […] are depicted in FIGS. 1-10 (labeled as Examples 16˜25), wherein each datum represents the mean of five replicate experiments. […] The % mean repellencies at 1% (w/v) are depicted in Table 2 for the compounds of Examples 1˜15, wherein R refers to the substituent on dihydronepetalactam.

Compound	pest or weed control at 10000 µg/mL
C[C@@H]1CN(C)C(=O)[C@H]2[C@@H]1CC[C@@H]2C [IVa, (4S,4aR,7S,7aR)-2,4,7-trimethyloctahydro-1H-cyclopenta[c]pyridin-1-one]	39.6%
CCN1C[C@@H](C)[C@H]2CC[C@H](C)[C@H]2C1=O [IVb, (4S,4aR,7S,7aR)-2-ethyl-4,7-dimethyloctahydro-1H-cyclopenta[c]pyridin-1-one]	96.8%
CCCN1C[C@@H](C)[C@H]2CC[C@H](C)[C@H]2C1=O [IVc, (4S,4aR,7S,7aR)-2-n-propyl-4,7-dimethyloctahydro-1H-cyclopenta[c]pyridin-1-one]	87.9%
CCCCN1C[C@@H](C)[C@H]2CC[C@H](C)[C@H]2C1=O [IVd, (4S,4aR,7S,7aR)-2-n-butyl-4,7-dimethyloctahydro-1H-cyclopenta[c]pyridin-1-one]	86.3%
CCCCCN1C[C@@H](C)[C@H]2CC[C@H](C)[C@H]2C1=O [IVe, (4S,4aR,7S,7aR)-2-n-pentyl-4,7-dimethyloctahydro-1H-cyclopenta[c]pyridin-1-one]	100%
CCCCCCN1C[C@@H](C)[C@H]2CC[C@H](C)[C@H]2C1=O [IVf, (4S,4aR,7S,7aR)-2-n-hexyl-4,7-dimethyloctahydro-1H-cyclopenta[c]pyridin-1-one]	99.8%
CCCCCCCCN1C[C@@H](C)[C@H]2CC[C@H](C)[C@H]2C1=O [IVg, (4S,4aR,7S,7aR)-2-n-octyl-4,7-dimethyloctahydro-1H-cyclopenta[c]pyridin-1-one]	98.3%
CC(C)N1C[C@@H](C)[C@H]2CC[C@H](C)[C@H]2C1=O [IVh, (4S,4aR,7S,7aR)-2-n-isopropyl-4,7-dimethyloctahydro-1H-cyclopenta[c]pyridin-1-one]	69.4%
C=CCN1C[C@@H](C)[C@H]2CC[C@H](C)[C@H]2C1=O [IVi, (4S,4aR,7S,7aR)-2-n-allyl-4,7-dimethyloctahydro-1H-cyclopenta[c]pyridin-1-one]	90.6%
C#CCN1C[C@@H](C)[C@H]2CC[C@H](C)[C@H]2C1=O [IVj, (4S,4aR,7S,7aR)-2-n-propargyl-4,7-dimethyloctahydro-1H-cyclopenta[c]pyridin-1-one]	88.1%
C[C@@H]1CNC(=O)[C@H]2[C@@H]1CC[C@@H]2C [V, (4S,4aR,7S,7aR)-4,7-dimethyloctahydro-1H-cyclopenta[c]pyridin-1-one]	69.6%
C[C@@H]1CN(c2ccccc2)C(=O)[C@H]2[C@@H]1CC[C@@H]2C [VIIa, (4S,4aR,7S,7aR)-4,7-dimethyl-2-phenyloctahydro-1H-cyclopenta[c]pyridin-1-one]	59.5%
C[C@@H]1CN(c2ccc(Cl)cc2)C(=O)[C@H]2[C@@H]1CC[C@@H]2C [VIIb, (4S,4aR,7S,7aR)-2-(4-chlorophenyl)-4,7-dimethyloctahydro-1H-cyclopenta[c]pyridin-1-one]	81.5%
C[C@@H]1CN(c2ccc(Br)cc2)C(=O)[C@H]2[C@@H]1CC[C@@H]2C [VIIc, (4S,4aR,7S,7aR)-2-(4-bromophenyl)-4,7-dimethyloctahydro-1H-cyclopenta[c]pyridin-1-one]	54.1%
